Read-outs that look alike come from different tables or passages of the source.
Key:
[1] = molecular target: biotinylated human IL-17A / AF647-labeled human IL-17RA (Homo sapiens, UniProt Q16552); test: Human IL-17A×IL-17RA TR-FRET assay; type: binding; details: biotinylated human IL-17A 5 nM, AF647-labeled human IL-17RA 30 nM
Summary of the method: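 Compounds tested in duplicate at each concentration; neutral controls contain all components with DMSO in place of compound.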

[2] = molecular target: recombinant human IL-17AA (Homo sapiens, UniProt Q16552); test: IL-6 release from NHDF cells, IL-17AA plus TNF-α stimulation; type: cell-based; details: IL-17AA 30 pM plus TNF-α 6 pM, 24 hours, IL-6 by ELISA
Chain of recombinant human IL-17AA (Q16552 24-155): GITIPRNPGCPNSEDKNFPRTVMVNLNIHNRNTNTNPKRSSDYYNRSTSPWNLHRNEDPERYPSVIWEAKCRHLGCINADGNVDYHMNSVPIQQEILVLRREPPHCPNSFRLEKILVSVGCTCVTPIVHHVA
Summary of the method: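 ELISA measured IL-6 in supernatants after 24 h at 37° C of NHDF cells with a compound/cytokine cocktail, pre-mixed 30 min at room temperature. Duplicates; 0.1% DMSO or 20% plasma final. IC50 from IL-6 remaining after subtracting the TNF-α-alone signal.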

[3] = TR-FRET, read-out: IL17AA FRET/ IL17Rawt IC50
[4] = NHDF cells, read-out: IL17AA + TNF IC50 IL-6

Chain of biotinylated human IL-17A / AF647-labeled human IL-17RA (Q16552 24-155): as above

| IC50 [1, 3] [nM] | IC50 [2, 4] [nM] | SMILES | IC50 ([1]; IL17AA FRET/ IL17Rawt IC50, TR-FRET) [nM] | IC50 ([2]; IL17AA + TNF IC50 IL-6, NHDF cells) [nM] |
| --- | --- | --- | --- | --- |
| 12 | 1 | Cc1c(-c2ccc(NC(=O)[C@@H](NC(=O)c3ccnn3C(C)C)C3CCCCCC3)cc2)c(Cl)cc[n+]1[O-] [Example 48, (S)-4-chloro-3-(4-(2-cycloheptyl-2-(1-isopropyl-1H-pyrazole-5-carboxamido)acetamido)phenyl)-2-methylpyridine 1-oxide] | – | – |
| 58 | 31 | Cc1nocc1C(=O)N[C@H](C(=O)Nc1ccc(-c2c(Cl)cc[n+]([O-])c2C)cc1)C1CCC(F)(F)CC1 [Example 49, (S)-4-chloro-3-(4-(2-(4,4-difluorocyclohexyl)-2-(3-methylisoxazole-4-carboxamido)acetamido)phenyl)-2-methylpyridine 1-oxide] | – | – |
| 23 | 1 | Cc1cc[n+]([O-])c(C)c1-c1ccc(NC(=O)[C@@H](NC(=O)c2ccnn2C(C)C)[C@H]2CCCc3ccccc32)cc1 [Example 50, 3-(4-((S)-2-(1-isopropyl-1H-pyrazole-5-carboxamido)-2-((S)-1,2,3,4-tetrahydronaphthalen-1-yl)acetamido)phenyl)-2,4-dimethylpyridine 1-oxide] | – | – |
| 66 | 62 | CCc1nocc1C(=O)NC(C(=O)Nc1ccc(-c2c(Cl)cc[n+]([O-])c2C)cc1)C1CCC(F)(F)CC1 (centres unmarked) [Example 51, 4-chloro-3-(4-(2-(4,4-difluorocyclohexyl)-2-(3-ethylisoxazole-4-carboxamido)acetamido)phenyl)-2-methylpyridine 1-oxide] | – | – |
| 43 | 80 | Cc1c(-c2ccc(NC(=O)[C@@H](NC(=O)c3ccnn3C)C3CCC(F)(F)CC3)cc2)c(Cl)cc[n+]1[O-] [Example 52, (S)-4-chloro-3-(4-(2-(4,4-difluorocyclohexyl)-2-(1-methyl-1H-pyrazole-5-carboxamido)acetamido)phenyl)-2-methylpyridine 1-oxide] | – | – |
| 16 | 86 | Cc1cc[n+]([O-])c(C)c1-c1ccc(NC(=O)[C@@H](NC(=O)c2ccoc2C)C2CCCCC2)cc1 [Example 53, (S)-3-(4-(2-cyclohexyl-2-(2-methylfuran-3-carboxamido)acetamido)phenyl)-2,4-dimethylpyridine 1-oxide] | – | – |
| 38 | 27 | Cc1c(-c2ccc(NC(=O)[C@@H](NC(=O)c3ccnn3C)C3CC=C(F)CC3)cc2)c(Cl)cc[n+]1[O-] (stereo partly drawn) [Example 55, 4-chloro-3-(4-((2S)-2-(4-fluorocyclohex-3-en-1-yl)-2-(1-methyl-1H-pyrazole-5-carboxamido)acetamido)phenyl)-2-methylpyridine 1-oxide] | – | – |
| – | – | Cc1c(-c2ccc(NC(=O)C(NC(=O)c3ccnn3C)C3CCC(C)CC3)cc2F)c(Cl)cc[n+]1[O-] [Example 56, 4-chloro-3-(2-fluoro-4-((S)-2-(1-methyl-1H-pyrazole-5-carboxamido)-2-((1r,4S)-4-methylcyclohexyl)acetamido)phenyl)-2-methylpyridine 1-oxide] | 21 | 4 |
| 37 | 12 | Cc1nocc1C(=O)NC(C(=O)Nc1ccc(-c2c(Cl)cc[n+]([O-])c2C)c(F)c1)[C@H]1C[C@@H]2C[C@@H]2C1 (stereo partly drawn) [Example 57, 3-(4-(2-((1R,3s,5S)-bicyclo[3.1.0]hexan-3-yl)-2-(3-methylisoxazole-4-carboxamido)acetamido)-2-fluorophenyl)-4-chloro-2-methylpyridine 1-oxide] | – | – |
| 44 | 12 | CCn1nccc1C(=O)NC(C(=O)Nc1ccc(-c2c(Cl)cc[n+]([O-])c2C)c(F)c1)[C@H]1C[C@@H]2C[C@@H]2C1 (stereo partly drawn) [Example 58, 3-(4-(2-((1R,3s,5S)-bicyclo[3.1.0]hexan-3-yl)-2-(1-ethyl-1H-pyrazole-5-carboxamido)acetamido)-2-fluorophenyl)-4-chloro-2-methylpyridine 1-oxide] | – | – |
| 49 | 56 | Cc1c(-c2ccc(NC(=O)[C@@H](NC(=O)c3ccnn3C)C3CCCCC3)c(F)c2)c(Cl)cc[n+]1[O-] [Example 59, (S)-4-chloro-3-(4-(2-cyclohexyl-2-(1-methyl-1H-pyrazole-5-carboxamido)acetamido)-3-fluorophenyl)-2-methylpyridine 1-oxide] | – | – |
| 123 | 236 | Cc1c(-c2ccc(NC(=O)[C@@H](NC(=O)c3ccnn3C)C3CCCCC3)nc2)c(Cl)cc[n+]1[O-] [Example 60, (S)-4-chloro-6′-(2-cyclohexyl-2-(1-methyl-1H-pyrazole-5-carboxamido)acetamido)-2-methyl-[3,3′-bipyridine] 1-oxide] | – | – |
| 18 | 16 | Cc1c(-c2c(F)cc(NC(=O)[C@@H](NC(=O)c3ccnn3C)C3CCCCC3)cc2F)c(Cl)cc[n+]1[O-] [Example 61, (S)-4-chloro-3-(4-(2-cyclohexyl-2-(1-methyl-1H-pyrazole-5-carboxamido)acetamido)-2,6-difluorophenyl)-2-methylpyridine 1-oxide] | – | – |
| 15 | 7 | Cc1c(-c2ccc(NC(=O)[C@@H](NC(=O)c3ccnn3C)C3CCCCC3)c(F)c2F)c(Cl)cc[n+]1[O-] [Example 62, 4-chloro-3-(4-((S)-2-cyclohexyl-2-(1-methyl-1H-pyrazole-5-carboxamido)acetamido)-2,3-difluorophenyl)-2-methylpyridine 1-oxide] | – | – |
| 247 | 57 | Cc1c(-c2cc(F)c(NC(=O)[C@@H](NC(=O)c3ccnn3C)C3CCCCC3)cc2F)c(Cl)cc[n+]1[O-] [Example 63, 4-chloro-3-(4-((S)-2-cyclohexyl-2-(1-methyl-1H-pyrazole-5-carboxamido)acetamido)-2,5-difluorophenyl)-2-methylpyridine 1-oxide] | – | – |
| 57 | 24 | Cc1c(-c2ccc(NC(=O)[C@@H](NC(=O)c3ccnn3C)C3CC=C(F)CC3)cc2)c(C(F)(F)F)cc[n+]1[O-] (stereo partly drawn) [Example 65, 3-(4-((2S)-2-(4-fluorocyclohex-3-en-1-yl)-2-(1-methyl-1H-pyrazole-5-carboxamido)acetamido)phenyl)-2-methyl-4-(trifluoromethyl)pyridine 1-oxide] | – | – |
| 18 | 4 | Cc1c(-c2ccc(NC(=O)[C@@H](NC(=O)c3ccnn3C)C3CCCCC3)cc2F)c(C(F)(F)F)cc[n+]1[O-] [Example 66, 3-(4-((S)-2-cyclohexyl-2-(1-methyl-1H-pyrazole-5-carboxamido)acetamido)-2-fluorophenyl)-2-methyl-4-(trifluoromethyl)pyridine 1-oxide] | – | – |
| 124 | 15 | Cc1c(-c2ccc(NC(=O)[C@@H](NC(=O)c3ccnn3C)C3CCCCC3)cc2)c(C(F)(F)F)cc[n+]1[O-] [Example 67, (S)-3-(4-(2-cyclohexyl-2-(1-methyl-1H-pyrazole-5-carboxamido)acetamido)phenyl)-2-methyl-4-(trifluoromethyl)pyridine 1-oxide] | – | – |
| 76 | 16 | Cc1cc[n+]([O-])c(C)c1-c1ccc(NC(=O)[C@@H](NC(=O)c2ccnn2C(C)C)C(c2ccccc2)c2ccccc2)cc1 [Example 68, (S)-3-(4-(2-(1-isopropyl-1H-pyrazole-5-carboxamido)-3,3-diphenylpropanamido)phenyl)-2,4-dimethylpyridine 1-oxide] | – | – |
| 90 | 20 | Cc1c(-c2ccc(NC(=O)[C@@H](NC(=O)c3ccnn3C)C(c3ccccc3)c3ccccc3)cc2)c(Cl)cc[n+]1[O-] [Example 69, (S)-4-chloro-2-methyl-3-(4-(2-(1-methyl-1H-pyrazole-5-carboxamido)-3,3-diphenylpropanamido)phenyl)pyridine 1-oxide] | – | – |
| 84 | 26 | CCn1nccc1C(=O)NC(C(=O)Nc1ccc(-c2c(Cl)cc[n+]([O-])c2C)cc1)C1CC2CC2C1 (centres unmarked) [Example 70, 3-(4-(2-(bicyclo[3.1.0]hexan-3-yl)-2-(1-ethyl-1H-pyrazole-5-carboxamido)acetamido)phenyl)-4-chloro-2-methylpyridine 1-oxide] | – | – |
| 86 | 35 | Cc1nocc1C(=O)NC(C(=O)Nc1ccc(-c2c(Cl)cc[n+]([O-])c2C)cc1)C1CC2CC2C1 (centres unmarked) [Example 71, 3-(4-(2-(bicyclo[3.1.0]hexan-3-yl)-2-(3-methylisoxazole-4-carboxamido)acetamido)phenyl)-4-chloro-2-methylpyridine 1-oxide] | – | – |
| 454 | 3400 | Cc1cc[n+]([O-])c(C)c1-c1ccc(NC(=O)[C@H](Cc2ccccc2F)NC(=O)c2conc2C)cc1 [Example 72, (S)-3-(4-(3-(2-fluorophenyl)-2-(3-methylisoxazole-4-carboxamido)propanamido)phenyl)-2,4-dimethylpyridine 1-oxide] | – | – |
| 1530 | > 10000 | Cc1cc[n+]([O-])c(C)c1-c1ccc(NC(=O)[C@H](Cc2ccccc2)NC(=O)c2conc2C)cc1 [Example 74, (S)-2,4-dimethyl-3-(4-(2-(3-methylisoxazole-4-carboxamido)-3-phenylpropanamido)phenyl)pyridine 1-oxide] | – | – |
| 2640 | > 10000 | Cc1cc[n+]([O-])c(C)c1-c1ccc(NC(=O)[C@H](Cc2ccccc2)NC(=O)c2ccnn2C)cc1 [Example 75, (S)-2,4-dimethyl-3-(4-(2-(1-methyl-1H-pyrazole-5-carboxamido)-3-phenylpropanamido)phenyl)pyridine 1-oxide] | – | – |

Source: patent publication US12600728B2, “Interleukin-17 inhibitors” (priority 2020, dated 2026)
